Results as given in ChEMBL document CHEMBL1156642, “Discovery of betamethasone 17alpha-carbamates as dissociated glucocorticoid receptor modulators in the rat” (Bioorg Med Chem, 2008).

Tests used:
[1] = target: T1, Interstitial collagenase (Homo sapiens) (UniProt P03956); test: Inhibition of glucocorticoid-mediated human MMP1 expression in PMA stimulated A549 cells assessed as MMP1 protein level by ELISA relative to Dexamethasone; type: cell-based; set-up: scale not given: the % may be the effect or the level left
T1 sequence (whole entry): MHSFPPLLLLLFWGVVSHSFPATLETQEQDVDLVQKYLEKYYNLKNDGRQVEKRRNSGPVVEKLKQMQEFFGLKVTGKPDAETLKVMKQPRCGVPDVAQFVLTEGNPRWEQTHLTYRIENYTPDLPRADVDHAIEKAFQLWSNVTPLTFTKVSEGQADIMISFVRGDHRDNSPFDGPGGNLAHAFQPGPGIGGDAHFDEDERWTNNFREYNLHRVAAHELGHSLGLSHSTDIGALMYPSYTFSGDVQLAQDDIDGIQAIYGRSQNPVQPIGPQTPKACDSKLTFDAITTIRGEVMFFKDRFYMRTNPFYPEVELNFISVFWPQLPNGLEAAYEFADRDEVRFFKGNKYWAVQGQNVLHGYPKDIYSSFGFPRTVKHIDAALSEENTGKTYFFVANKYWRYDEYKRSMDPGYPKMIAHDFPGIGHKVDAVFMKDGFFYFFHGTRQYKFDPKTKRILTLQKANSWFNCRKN

[2] = Transactivation activity of glutamine synthase in rat skeletal muscle cells; type: cell-based
Rattus norvegicus = organism: Rattus norvegicus; test: Transactivation activity of glutamine synthase in rat skeletal muscle cells relative to Dexamethasone; type: cell-based
Glucocorticoid receptor = target: T2, Glucocorticoid receptor (Homo sapiens, UniProt P04150)
T2 sequence (P04150 whole entry): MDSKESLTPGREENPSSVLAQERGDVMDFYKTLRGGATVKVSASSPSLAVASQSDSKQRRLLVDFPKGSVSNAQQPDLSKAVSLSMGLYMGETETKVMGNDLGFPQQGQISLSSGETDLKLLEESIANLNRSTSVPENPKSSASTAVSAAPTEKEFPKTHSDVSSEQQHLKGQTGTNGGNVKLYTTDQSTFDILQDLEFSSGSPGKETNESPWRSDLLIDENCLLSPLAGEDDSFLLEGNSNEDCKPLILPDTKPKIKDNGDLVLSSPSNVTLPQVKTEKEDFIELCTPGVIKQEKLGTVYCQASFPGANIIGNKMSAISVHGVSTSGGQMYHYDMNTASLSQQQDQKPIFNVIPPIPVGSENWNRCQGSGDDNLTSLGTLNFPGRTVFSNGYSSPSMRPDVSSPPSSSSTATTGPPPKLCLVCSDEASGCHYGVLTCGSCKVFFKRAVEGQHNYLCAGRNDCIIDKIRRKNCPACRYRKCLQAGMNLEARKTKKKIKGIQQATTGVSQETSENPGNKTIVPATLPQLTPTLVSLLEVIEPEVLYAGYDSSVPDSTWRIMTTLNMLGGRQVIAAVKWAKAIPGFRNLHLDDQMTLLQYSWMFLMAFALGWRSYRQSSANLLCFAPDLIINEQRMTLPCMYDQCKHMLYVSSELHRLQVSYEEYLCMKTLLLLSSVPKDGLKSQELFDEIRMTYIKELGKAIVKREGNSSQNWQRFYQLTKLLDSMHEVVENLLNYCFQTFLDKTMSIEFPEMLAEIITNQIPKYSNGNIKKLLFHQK
Description: Inhibition of human glucocorticoid receptor

Progesterone receptor = target: T3, Progesterone receptor (Homo sapiens, UniProt P06401); test: Inhibition of human progesterone receptor
T3 sequence (P06401 whole entry): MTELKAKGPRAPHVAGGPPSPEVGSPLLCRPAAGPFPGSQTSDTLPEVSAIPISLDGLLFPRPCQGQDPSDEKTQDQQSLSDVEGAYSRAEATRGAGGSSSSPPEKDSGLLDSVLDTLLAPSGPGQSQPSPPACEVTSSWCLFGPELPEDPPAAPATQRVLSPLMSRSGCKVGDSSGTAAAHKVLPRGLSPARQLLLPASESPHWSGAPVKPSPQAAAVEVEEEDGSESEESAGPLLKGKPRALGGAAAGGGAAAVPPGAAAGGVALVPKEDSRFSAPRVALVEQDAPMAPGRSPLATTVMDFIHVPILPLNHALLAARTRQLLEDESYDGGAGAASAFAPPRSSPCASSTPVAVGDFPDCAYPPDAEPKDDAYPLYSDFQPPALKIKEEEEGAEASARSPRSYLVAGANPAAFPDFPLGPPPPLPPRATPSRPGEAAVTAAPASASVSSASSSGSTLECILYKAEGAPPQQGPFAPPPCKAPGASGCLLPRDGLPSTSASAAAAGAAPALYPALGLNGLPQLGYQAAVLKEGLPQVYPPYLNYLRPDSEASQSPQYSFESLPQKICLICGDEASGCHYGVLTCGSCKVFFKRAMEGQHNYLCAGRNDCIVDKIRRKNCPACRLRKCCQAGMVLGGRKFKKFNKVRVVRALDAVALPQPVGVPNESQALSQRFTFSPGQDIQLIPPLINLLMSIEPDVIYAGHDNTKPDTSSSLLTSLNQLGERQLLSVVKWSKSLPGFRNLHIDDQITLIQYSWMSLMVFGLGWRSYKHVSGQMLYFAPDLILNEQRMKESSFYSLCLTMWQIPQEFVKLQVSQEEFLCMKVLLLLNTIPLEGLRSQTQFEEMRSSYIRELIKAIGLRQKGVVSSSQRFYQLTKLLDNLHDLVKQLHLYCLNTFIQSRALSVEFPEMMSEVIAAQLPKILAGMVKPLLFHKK

Row | Structure (SMILES) | Activity [1] [%] | EC50 [2] [nM] | Activity (Rattus norvegicus) [%] | IC50 (Glucocorticoid receptor) [nM] | IC50 (Progesterone receptor) [nM]
1 | COC(=O)[C@H](C)NC(=O)O[C@]1(C(=O)CO)[C@@H](C)C[C@H]2[C@@H]3CCC4=CC(=O)C=C[C@]4(C)[C@@]3(F)[C@@H](O)C[C@@]21C | 107 | 47 | 103 | 28.6 | –
2 | C[C@H]1C[C@H]2[C@@H]3CCC4=CC(=O)C=C[C@]4(C)[C@@]3(F)[C@@H](O)C[C@]2(C)[C@@]1(OC(=O)NC(C)(C)CC(C)(C)C)C(=O)CO | 80.3 | 223 | 50 | 5.7 | > 1000
3 | CCCCNC(=O)O[C@]1(C(=O)CO)[C@@H](C)C[C@H]2[C@@H]3CCC4=CC(=O)C=C[C@]4(C)[C@@]3(F)[C@@H](O)C[C@@]21C | 98 | – | 31.3 | 2.8 | –
4 | C[C@H]1C[C@H]2[C@@H]3CCC4=CC(=O)C=C[C@]4(C)[C@@]3(F)[C@@H](O)C[C@]2(C)[C@@]1(OC(=O)NCCC(C)(C)C)C(=O)CO | 56.3 | 576 | 61.8 | 12.3 | –
5 | C[C@H]1C[C@H]2[C@@H]3CCC4=CC(=O)C=C[C@]4(C)[C@@]3(F)[C@@H](O)C[C@]2(C)[C@@]1(OC(=O)NCC(C)(C)C)C(=O)CO | 44.7 | – | – | 352 | –
6 | C[C@H]1C[C@H]2[C@@H]3CCC4=CC(=O)C=C[C@]4(C)[C@@]3(F)[C@@H](O)C[C@]2(C)[C@@]1(OC(=O)NC1CCCC1)C(=O)CO | 76.1 | – | 23 | 3.8 | –
7 | CC(C)NC(=O)O[C@]1(C(=O)CO)[C@@H](C)C[C@H]2[C@@H]3CCC4=CC(=O)C=C[C@]4(C)[C@@]3(F)[C@@H](O)C[C@@]21C | 105 | – | 26 | 21.5 | –
8 | C[C@H]1C[C@H]2[C@@H]3CCC4=CC(=O)C=C[C@]4(C)[C@@]3(F)[C@@H](O)C[C@]2(C)[C@@]1(OC(=O)NC(C)(C)C)C(=O)CO | 94 | 0.37 | 64 | 2.4 | –
